Patent EP4563571A1, “PRMT5 INHIBITORS” (Beijing Earthwise Technology Co., Ltd., priority 2022, dated 2024)

test system: HCT116^MTAP Deletion cells; assay: Anti-proliferation assay on cells (Cell-Titer Glo, 10 days); type: cell-based; conditions: 240 h, HCT116^MTAP Deletion cells, 10 days incubation, CTG readout; read-out: HCT116^MTAP Deletion GI50
Protocol: HCT116^MTAP Deletion cells were from Pharmaron (China); HCT116 cells were from ATCC; McCoy's 5A medium was purchased from Invitrogen (USA); penicillin-streptomycin and fetal bovine serum were purchased from Gibco (USA); a 384-well plate was purchased from PerkinElmer (USA); and Cell-Titer Glo reagent was purchased from Promega (USA).
Compound dissolution: All the compounds were dissolved in dimethyl sulfoxide (DMSO) and then stored. The compounds were stored at room temperature in a dry condition for 3 months for short term storage or at -20 °C for long term storage.
Cell culture and passaging
The cells were cultured strictly in accordance with ATCC requirements. The cell culture medium (McCoy's 5A medium + 10% fetal bovine serum + 1% penicillin + streptomycin) was transferred to a 15 mL centrifuge tube and centrifuged at 1000 rpm for 5 min. The supernatant was removed. The cells were resuspended with complete culture medium, inoculated into a culture dish at the required density, and cultured in an incubator at 37 °C, 95% humid air, and 5% carbon dioxide. The culture medium was replenished or the cells were passaged every 2-3 days depending on the cell growth condition.
Cell proliferation activity assay
When the confluency of cells in the culture dish reached about 90%, the cells were washed twice with PBS, and then treated with trypsin to become single cells. The cells were counted, and 40µl of the cells was inoculated into each well of a 384-well plate (50 cells/well). The plate was equilibrated at 37 °C and 5% carbon dioxide for 10 to 15 minutes. The compounds were injected into the 384-well plate using Echo550, and positive control and negative control (0.1% DMSO) were set up. Each compound was subjected to a 3-fold dilution, resulting in 10 concentration gradients, in duplicate, and the content of DMSO was 0.1%. The 384-well plate was incubated in a cell culture incubator for 10 days.
Then, 40 µl of cell proliferation assay reagent (CTG) was added to the 384-well plate, and the plate was shaken to mix well. Then, the 384-well plate was incubated at 37 °C and 5% carbon dioxide in the dark for 30 minutes. The data were read using the Envision multifunctional microplate reader. […] According to the different drug concentrations and their corresponding inhibition rates, the GI50 curve was drawn using GraphPad 8.0 software. The data were analyzed, and the final IC50 value was obtained.

| SMILES | GI50 [nM] |
| --- | --- |
| CN(C(=O)C(=O)Nc1cnc(N)c2c1COC2)C1CCOCc2cc(C(F)(F)F)ccc21 (stereo not drawn) [Example 49] | 100 to 1000 |
| Cn1ncc2c(NC(=O)C(=O)N(Cc3ccc(C(F)(F)F)cn3)Cc3ccnc4[nH]ccc34)cnc(N)c21 [Example 50] | < 10 |
| C[C@H](C1CC1)N(Cc1ccc(C(F)(F)F)cn1)C(=O)C(=O)Nc1cnc(N)c2c1cnn2C [Example 51] | 10 to 100 |
| Cc1cc(NC(=O)C(=O)N(Cc2ccc(C(F)(F)F)cn2)CC23CC(C2)C3)cnc1N [Example 53] | 100 to 1000 |
| CCC(C)N(Cc1ccc(C(F)(F)F)cn1)C(=O)C(=O)Nc1cnc(N)c2c1COC2 (stereo not drawn) [Example 54] | 10 to 100 |
| Cc1cc(NC(=O)C(=O)N(Cc2ccc(C(F)(F)F)nn2)[C@H](C)c2ncccn2)cnc1N [Example 55] | 100 to 1000 |
| CN(C(=O)C(=O)Nc1cnc(N)c2c1COC2)C1COCc2cc(C(F)(F)F)ccc21 (stereo not drawn) [Example 56] | 10 to 100 |
| CCC(C)N(Cc1ccc(C(F)(F)F)nc1)C(=O)C(=O)Nc1cnc(N)c(C)c1 (stereo not drawn) [Example 57] | 100 to 1000 |
| CCC(C)N(Cc1cnc(C(F)(F)F)nc1)C(=O)C(=O)Nc1cnc(N)c(C)c1 (stereo not drawn) [Example 58] | > 10000 |
| CCC(C)N(Cc1ccc(C(F)(F)F)cc1)C(=O)C(=O)Nc1cnc(N)c(C)c1 (stereo not drawn) [Example 59] | 10 to 100 |
| Cc1cc(NC(=O)C(=O)N(Cc2ccc(C(F)(F)F)cn2)C2CCCc3cn[nH]c32)cnc1N (stereo not drawn) [Example 60] | 100 to 1000 |
| CCC(C)N(Cc1ccc(Cl)cn1)C(=O)C(=O)Nc1cnc(N)c(C)c1 (stereo not drawn) [Example 61] | 100 to 1000 |
| CCOc1ccc(CN(C(=O)C(=O)Nc2cnc(N)c(C)c2)C(C)CC)nc1 (stereo not drawn) [Example 62] | 10 to 100 |
| Nc1ncc(NC(=O)C(=O)N(Cc2ccc(C(F)(F)F)cn2)Cc2ccnc3[nH]ccc23)c2c1COC2 [Example 64] | 10 to 100 |
| CCC(C)N(Cc1ccc(C(F)(F)F)nn1)C(=O)C(=O)Nc1cnc(N)c(C)c1 (stereo not drawn) [Example 65] | 100 to 1000 |
| CCC(C)N(Cc1ncc(C)s1)C(=O)C(=O)Nc1cnc(N)c(C)c1 (stereo not drawn) [Example 66] | 1000 to 10000 |
| CN(Cc1ccc2sc(C3CCOCC3)nc2c1)C(=O)C(=O)Nc1cnc(N)c2c1COC2 [Example 67] | 1000 to 10000 |
| CC(c1cscn1)N(Cc1ccc(C(F)(F)F)cn1)C(=O)C(=O)Nc1cnc(N)c2c1COC2 (stereo not drawn) [Example 68] | 10 to 100 |
| CCC(C)N(Cc1ccc(S(F)(F)(F)(F)F)cc1)C(=O)C(=O)Nc1cnc(N)c(C)c1 (stereo not drawn) [Example 69] | 100 to 1000 |
| Cc1cc(NC(=O)C(=O)N(Cc2ccc(C(F)(F)F)cn2)CC2CC(F)(F)C2)cnc1N [Example 70] | 100 to 1000 |
| CCC(C)N(Cc1ccc(C2CC2)cn1)C(=O)C(=O)Nc1cnc(N)c(C)c1 (stereo not drawn) [Example 71] | 10 to 100 |
| CCC(C)N(Cc1ccn(C)n1)C(=O)C(=O)Nc1cnc(N)c(C)c1 (stereo not drawn) [Example 72] | 1000 to 10000 |
| CCC(C)N(C(=O)C(=O)Nc1cnc(N)c(C)c1)C(C)c1ccc(C(F)(F)F)cn1 (stereo not drawn) [Example 74] | 1000 to 10000 |
| CCC(C)N(Cc1cc(C)n(C)n1)C(=O)C(=O)Nc1cnc(N)c(C)c1 (stereo not drawn) [Example 75] | 100 to 1000 |
| CCC(C)N(Cc1nc(C)cs1)C(=O)C(=O)Nc1cnc(N)c(C)c1 (stereo not drawn) [Example 76] | 100 to 1000 |
| CCC(C)N(Cc1ccc(C#N)c(Cl)n1)C(=O)C(=O)Nc1cnc(N)c(C)c1 (stereo not drawn) [Example 77] | 10 to 100 |

| SMILES | GI50 [nM] |
| --- | --- |
| CCC(C)N(Cc1ccc(C(F)(F)F)cn1)C(=O)C(=O)Nc1cnc(N)c(C2CC2)c1 (stereo not drawn) [Example 78] | 100 to 1000 |
| CC1OCc2c(NC(=O)C(=O)N(Cc3ccc(C(F)(F)F)cn3)CC3CC3)cnc(N)c21 (stereo not drawn) [Example 79] | 100 to 1000 |
| CCC(C)N(Cc1ccc(OC(C)C)cn1)C(=O)C(=O)Nc1cnc(N)c(C)c1 (stereo not drawn) [Example 80] | 10 to 100 |
| CC1OCc2c(NC(=O)C(=O)N(Cc3ccc(C(F)(F)F)cn3)Cc3ccnc4[nH]ccc34)cnc(N)c21 (stereo not drawn) [Example 81] | < 10 |
| CCC(C)N(Cc1ncc(C(F)(F)F)cn1)C(=O)C(=O)Nc1cnc(N)c(C)c1 (stereo not drawn) [Example 82] | 100 to 1000 |
| CCC(C)N(Cc1ccc(OC2CC2)cn1)C(=O)C(=O)Nc1cnc(N)c(C)c1 (stereo not drawn) [Example 83] | 10 to 100 |
| COC(=O)N1CC=C(c2ccc(CN(C(=O)C(=O)Nc3cnc(N)c(C)c3)[C@H](C)c3ncccn3)nc2)CC1 [Example 84] | 10 to 100 |
| CCC(C)N(Cc1ccc(S(C)(=O)=O)cn1)C(=O)C(=O)Nc1cnc(N)c(C)c1 (stereo not drawn) [Example 85] | 100 to 1000 |
| Cc1cc(NC(=O)C(=O)N(Cc2ccc(C(F)(F)F)cn2)C(C)C(C)C)cnc1N (stereo not drawn) [Example 86] | 10 to 100 |
| CCC(C)N(Cc1cccc(C(F)(F)F)n1)C(=O)C(=O)Nc1cnc(N)c(C)c1 (stereo not drawn) [Example 87] | 100 to 1000 |
| CCC(C)N(Cc1ccc(OC(F)(F)F)cn1)C(=O)C(=O)Nc1cnc(N)c(C)c1 (stereo not drawn) [Example 92] | 10 to 100 |
| CC(C)N(C(=O)C(=O)Nc1cnc(N)c2c1cnn2C)C1COCc2cc(C(F)(F)F)ccc21 (stereo not drawn) [Example 96] | 10 to 100 |
| CCCN(C(=O)C(=O)Nc1cnc(N)c2c1cnn2C)C1COCc2cc(C(F)(F)F)ccc21 (stereo not drawn) [Example 97] | < 10 |
| CCN(C(=O)C(=O)Nc1cnc(N)c2c1cnn2C)C1COCc2cc(C(F)(F)F)ccc21 (stereo not drawn) [Example 101] | < 10 |
| Cn1ncc2c(NC(=O)C(=O)N(CC3CC3)C3COCc4cc(C(F)(F)F)ccc43)cnc(N)c21 (stereo not drawn) [Example 102] | < 10 |
| CC(C)CN(C(=O)C(=O)Nc1cnc(N)c2c1cnn2C)C1COCc2cc(C(F)(F)F)ccc21 (stereo not drawn) [Example 103] | < 10 |
| CCC(C)N(Cc1cc(C(F)(F)F)ccn1)C(=O)C(=O)Nc1cnc(N)c(C)c1 (stereo not drawn) [Example 105] | 100 to 1000 |
| Cc1cc(NC(=O)C(=O)N(CC(C)C)c2cccc(C(F)(F)F)c2)cnc1N [Example 107] | > 10000 |
| CN(C(=O)C(=O)Nc1cnc(N)c2c1cnn2C)C1COCc2cc(C3=CCCOC3)ccc21 (stereo not drawn) [Example 108] | 10 to 100 |
| [2H]C([2H])([2H])N(C(=O)C(=O)Nc1cnc(N)c2c1cnn2C)C1COCc2cc(C(F)(F)F)ccc21 (stereo not drawn) [Example 109] | < 10 |
| CN(C(=O)C(=O)Nc1cnc(N)c2c1cnn2C)C1COCc2cc(C(F)(F)F)cnc21 (stereo not drawn) [Example 114] | 100 to 1000 |
| CN(C(=O)C(=O)Nc1cnc(N)c2c1cnn2C)C1COCc2cc(OC(F)(F)F)ccc21 (stereo not drawn) [Example 115] | < 10 |
| CC(C)N(C(=O)C(=O)Nc1cnc(N)c2c1cnn2C)C1COc2cc(C(F)(F)F)ccc21 (stereo not drawn) [Example 116] | 10 to 100 |
| CCCN(C(=O)C(=O)Nc1cnc(N)c2c1cnn2C)C1COc2cc(C(F)(F)F)ccc21 (stereo not drawn) [Example 117] | 10 to 100 |
| Cn1ncc2c(NC(=O)C(=O)N(C3CC3)C3COc4cc(C(F)(F)F)ccc43)cnc(N)c21 (stereo not drawn) [Example 118] | < 10 |
| Cn1ncc2c(NC(=O)C(=O)NC3COCc4cc(C(F)(F)F)ccc43)cnc(N)c21 (stereo not drawn) [Example 119] | 1000 to 10000 |

same assay, conditions: HCT116^MTAP Deletion cells, 10 days incubation, CTG readout; read-out: HCT116^MTAP Deletion GI50

| SMILES | GI50 [nM] |
| --- | --- |
| CN(C(=O)C(=O)Nc1cnc(N)c2c1cnn2C)C1COCc2cc(C(F)(F)F)ccc21 (stereo not drawn) [Example 48] | < 10 |
| CCC(C)N(Cc1ccc(C(F)(F)F)cn1)C(=O)C(=O)Nc1cnc(N)c2c1cnn2C (stereo not drawn) [Example 52] | < 10 |
| CCC(C)N(Cc1ccc(OCC(F)(F)F)nn1)C(=O)C(=O)Nc1cnc(N)c(C)c1 (stereo not drawn) [Example 63] | 100 to 1000 |
| CCC(C)N(Cc1cnn(C)c1)C(=O)C(=O)Nc1cnc(N)c(C)c1 (stereo not drawn) [Example 73] | > 10000 |
| CC(C)C(C)N(Cc1ccc(C(F)(F)F)cn1)C(=O)C(=O)Nc1cnc(N)c2c1cnn2C (stereo not drawn) [Example 110-P2] | < 10 |
